Here are results for three compounds from BindingDB's records for patent US10266550 (The Florida International University Board of Trustees, 2019).

In the assay the target is DNA topoisomerase 2-alpha (Homo sapiens, UniProt P11388). The experiment in a line: Human Topoisomerase IIalpha Decatenation Inhibition Assay. As for the experimental part:
The samples were incubated for 15 minutes at 37° C. before the addition of 4 μL of a stop buffer containing 5% sarkosyl, 0.25% bromophenol blue, and 25% glycerol. The reactions were then analyzed by electrophoresis in 1% agarose gels containing […] ethidium bromide before being photographed under UV light.

Sequence of DNA topoisomerase 2-alpha (P11388 whole entry): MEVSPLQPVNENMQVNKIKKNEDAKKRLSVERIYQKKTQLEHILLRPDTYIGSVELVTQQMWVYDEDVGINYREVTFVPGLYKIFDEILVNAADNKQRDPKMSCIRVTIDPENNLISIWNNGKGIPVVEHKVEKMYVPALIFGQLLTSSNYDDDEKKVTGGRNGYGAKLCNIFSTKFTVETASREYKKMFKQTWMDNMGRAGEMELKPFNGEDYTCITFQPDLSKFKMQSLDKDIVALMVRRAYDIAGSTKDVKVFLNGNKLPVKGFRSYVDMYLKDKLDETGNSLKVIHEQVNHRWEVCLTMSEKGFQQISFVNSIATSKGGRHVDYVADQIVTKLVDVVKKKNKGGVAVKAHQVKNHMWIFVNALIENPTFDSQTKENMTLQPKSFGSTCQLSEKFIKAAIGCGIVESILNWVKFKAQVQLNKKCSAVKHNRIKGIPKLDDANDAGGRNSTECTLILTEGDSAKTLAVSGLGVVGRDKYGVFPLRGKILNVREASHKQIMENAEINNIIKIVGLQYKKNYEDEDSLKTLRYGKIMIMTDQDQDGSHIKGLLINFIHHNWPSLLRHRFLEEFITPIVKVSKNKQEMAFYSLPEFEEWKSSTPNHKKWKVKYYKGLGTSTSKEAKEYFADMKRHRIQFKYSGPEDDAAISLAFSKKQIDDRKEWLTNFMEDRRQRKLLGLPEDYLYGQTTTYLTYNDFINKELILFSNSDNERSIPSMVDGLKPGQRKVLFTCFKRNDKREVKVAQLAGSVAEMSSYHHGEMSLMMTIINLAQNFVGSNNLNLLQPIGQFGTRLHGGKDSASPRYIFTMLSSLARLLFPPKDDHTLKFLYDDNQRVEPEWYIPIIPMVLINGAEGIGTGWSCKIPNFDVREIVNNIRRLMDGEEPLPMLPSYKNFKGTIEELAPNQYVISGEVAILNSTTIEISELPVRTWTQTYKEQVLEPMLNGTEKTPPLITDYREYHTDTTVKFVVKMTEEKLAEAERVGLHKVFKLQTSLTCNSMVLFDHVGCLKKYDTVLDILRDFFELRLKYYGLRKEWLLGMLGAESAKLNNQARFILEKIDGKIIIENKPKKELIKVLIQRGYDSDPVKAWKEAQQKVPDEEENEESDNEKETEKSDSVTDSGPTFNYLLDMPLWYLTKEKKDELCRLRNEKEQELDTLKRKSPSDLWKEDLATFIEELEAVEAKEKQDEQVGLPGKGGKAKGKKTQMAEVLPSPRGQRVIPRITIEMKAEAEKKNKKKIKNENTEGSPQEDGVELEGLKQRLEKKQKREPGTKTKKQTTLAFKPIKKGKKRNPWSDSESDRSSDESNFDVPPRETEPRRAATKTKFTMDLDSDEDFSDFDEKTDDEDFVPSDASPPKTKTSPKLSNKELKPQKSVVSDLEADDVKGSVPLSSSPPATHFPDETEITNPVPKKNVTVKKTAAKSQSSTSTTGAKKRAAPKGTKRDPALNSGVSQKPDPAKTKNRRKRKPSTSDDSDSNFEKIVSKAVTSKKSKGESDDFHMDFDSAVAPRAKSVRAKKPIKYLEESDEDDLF

With `CN1CCN(c2c(F)cc3c(=O)c(C(=O)O)cn4c3c2Oc2cc(N)ccc2-4)CC1` [US10266550, Compound 11a], the IC50 is 5850 nM.
Turning to `Nc1ccc2c(c1)Oc1c(N3CCNCC3)c(F)cc3c(=O)c(C(=O)O)cn-2c13` [US10266550, Compound 11b], the half-inhibitory concentration (IC50) is 2920 nM.
Under `N[C@H]1CCN(c2c(F)cc3c(=O)c(C(=O)O)cn4c3c2Oc2cc([N+](=O)[O-])ccc2-4)C1` [US10266550, Compound 16] stands 2920 nM.
